Test results as given in US10034931B2, “Use of EGFR pathway inhibitors to increase immune responses to antigens” (Emory University, priority 2013, dated 2018).

Experiments:
[1] = system: influenza-specific binding IgG antibodies; test: Virus-specific (total vaccine-reactive) antibody levels by ELISA; format: in vivo, BALB/c mice; details: between the three groups (EGFRI, vehicle, vaccine only)
[2] = system: A/California/07/2009 virus; test: Neutralizing antibody titers by microneutralization assay in sera of vaccinated mice; format: in vivo, BALB/c mice; details: by week 8; vs vehicle-vaccinated and vaccine alone
[3] = system: CCL2; test: Steady state mRNA levels of immune genes in skin after topical application; format: in vivo, Balb/c mice; details: topical application to dorsal skin, six hour time point
Text: The topical application of the irreversible EGFR inhibitor PD168393 can enhance the elicitation phase of contact hypersensitivity in a manner that is associated with increases in several chemoattractant chemokines. During EGFRI therapy there are changes in immune gene expression even in clinically normal (non-inflamed) skin). To determine how EGFR inhibition alters immune gene expression, PD168393 or vehicle (10% DMSO in ethanol) was applied to the backs of Balb/c mice (5 mice per group) and steady state mRNA levels of several genes were measured. A six hour time point was selected for these experiments. […] This increase was observed independent of the reference housekeeping gene used in the analysis. In contrast, steady state levels of the housekeeping genes and several other genes analyzed were unchanged by topical PD168393 at this time point. These studies indicate that a single application of an EGFRI to mouse skin can alter the expression of chemokines that are known to influence immune cell trafficking into the skin.

[4] = system: IFN-γ-producing and IL-4-producing cells; test: IL-4 and IFN-γ secreting cells (ELISPOT) in skin-draining lymph nodes and spleens; format: in vivo, BALB/c mice
[5] = system: A/California/07/09 (H1N1) influenza virus; test: Hemagglutination inhibition (HAI) titers in sera of vaccinated mice; format: in vivo, BALB/c mice
[6] = system: vaccine-specific IgM-secreting cells and IgG-secreting cells; test: Vaccine-specific antibody secreting cells (ELISPOT) in skin draining lymph nodes and spleen; format: in vivo, BALB/c mice
[7] = system: contact hypersensitivity; details: topical application; associated with increases in several chemoattractant chemokines; cited from earlier work

Question: Which total vaccine-reactive antibodies [1] does the source give for `C=CC(=O)Nc1ccc2ncnc(Nc3cccc(Br)c3)c2c1` [PD168393, N-[4-(3-bromoanilino)quinazolin-6-yl]prop-2-enamide] here?
Answer: Its total vaccine-reactive antibodies is “no differences”.

Question: What about the NT titers [2] of the same compound?
Answer: The NT titers was “increased relative to both control groups”.

Question: And the “steady state levels of the housekeeping genes and several other genes” value [3]?
Answer: The value was “unchanged”.

Question: And the “steady state mRNA levels of the chemokine CCL2” value ([3]; vs vehicle (10% DMSO in ethanol))?
Answer: The value was “statistically significant increase”.

Question: What about the “numbers of activated influenza-specific immune cells as defined by IFN-γ and IL-4 secretion” value ([4]; one week post immunization, vs vehicle-vaccinated mice) of the same compound?
Answer: The value was “higher numbers”.

Question: What about the “numbers of IL-4 secreting cells” value ([4]; skin-draining lymph nodes, one week post immunization, vs vehicle-vaccinated mice) of the same compound?
Answer: Its value is 3 fold.

Question: And the “numbers of IFN-γ secreting cells” value ([4]; skin-draining lymph nodes, one week post-vaccination, vs vaccine-vehicle cohort)?
Answer: The value was 4 fold.

Question: What about the “levels of IL-4 secreting lymphocytes” value ([4]; skin-draining lymph nodes, two weeks post immunization, vs vehicle) of the same compound?
Answer: Its value is “significantly higher”.

Question: And the “difference in numbers of IFN-γ secreting cells” value ([4]; skin-draining lymph nodes, two weeks post vaccination, vs vaccine-vehicle cohort)?
Answer: The value was “absent”.

Question: What about the “numbers of IL-4 and IFN-γ secreting cells in spleens” value ([4]; spleens, EGFRI- vs vehicle-vaccinated mice) of the same compound?
Answer: Its value is “no differences”.

Question: And the “HAI titers, difference to vaccine alone or vehicle-vaccine group” value ([5]; as early as week 4)?
Answer: Its value is “two-fold higher”.

Question: And the “functionally relevant humoral immune responses” value ([5]; single application at site just prior to intradermal vaccination, vs vehicle (10% DMSO in ethanol)-treated mice)?
Answer: Its value is “significantly higher”.

Question: And the HAI titers ([5]; single topical application at site just prior to intradermal vaccination, vs vehicle-vaccine and vaccine only)?
Answer: Its HAI titers is “significantly higher”.

Question: What about the “numbers of IgG-secreting cells” value ([6]; skin draining lymph nodes, 1 and 2 weeks post vaccination, vs vehicle-vaccinated mice) of the same compound?
Answer: Its value is “significantly higher”.

Question: What about the “number of IgG secreting cells” value ([6]; skin draining lymph nodes, day 14, vs vehicle-vaccinated mice) of the same compound?
Answer: Its value is “twice as high”.

Question: What about the “number of IgM secreting cells” value ([6]; skin draining lymph nodes, seven days post vaccination, vs vehicle-vaccinated mice) of the same compound?
Answer: Its value is “double”.

Question: What about the “number of cells producing influenza-specific antibodies” value ([6]; skin-draining lymph nodes, topical treatment prior to vaccination) of the same compound?
Answer: The value was “increase”.

Question: What about the “cellular responses in the spleen (antibody secreting cells)” value ([6]; spleen, EGFRI- vs vehicle-vaccinated mice) of the same compound?
Answer: The value was “without any notable differences”.

Question: What about the “elicitation phase of contact hypersensitivity” value [7] of the same compound?
Answer: Its value is “enhance”.
